Experimental findings from patent US11618738B2, “Compound and application thereof in treating inflammation or inflammation-related diseases” (SICHUAN CENTER FOR TRANSLATIONAL MEDICINE OF TRADITIONAL …, priority 2017, dated 2023) are described below.

Marks after values point to notes of the source that are not given here.

Type in all cases: in vivo
Assay [1] has as its system acute gouty arthritis in rats induced by sodium urate crystals. Put plainly: Foot swelling in rats with acute gouty arthritis induced by sodium urate crystals. The settings on record: for foot volume compared with the model group (in words): medium- and high-dose groups, 24 h and 48 h after injection of sodium urate crystals. On the procedure: Injecting sodium urate crystals into the joint cavity to establish an acute gouty arthritis model. Its pathological and clinical manifestations are very similar. It is a classic method commonly used in animal experiments to study gouty arthritis. This experiment will explore the effects of UTLOH series drugs on animals with acute gouty arthritis induced by sodium urate.
SPF grade SD rats, half female and half male (200-220 g/mouse), were randomly grouped by weight. The drug was administered once a day, for 3 consecutive days. […] Rats in the normal group were injected with an equal volume of sterile saline to the back of the right ankle joint. The administration was continued after modeling, once a day for 3 consecutive days. The ankle joint and foot volume of the rats in each group were measured respectively before modeling and 2 h, 4 h, 8 h, 24 h and 48 h after modeling.

The next assay addresses T1, xanthine oxidase (XOD) (Mus musculus, UniProt Q00519).
T1 construct: from tissue; host or cells: liver of KM mice (homogenate supernatant)
Put plainly: Liver XOD activity in OA-induced hyperuricemia model mice. The settings on record: for XOD(U/gprot): liver homogenate, mean ± SD. As for the experimental part:
(§1) SPF grade KM mice, half female and half male (18-22 g/mouse). After the animals were adaptively fed for 3 days, they were randomly grouped by body weight. It was administered once a day for 7 consecutive days by gavage. On the 7th day, 1 hour before the gavage administration, the mice were intraperitoneally injected with a dose of 300 mg/kg of oxonic acid potassium salt. After the administration, the eyeballs were removed to take blood, and the serum was separated for testing. After decapitation, the liver was taken, weighed, cut into pieces, added with saline, homogenized, and centrifuged. Operated according to the kit instructions to determine the blood uric acid (UA) level in each group of mice; determine the xanthine oxidase (XOD) activity in the supernatant of mouse liver homogenate.

Assay [2] relates to OA-induced hyperuricemia model mice. Nature of the assay: Serum UA in oxonic acid potassium salt-induced hyperuricemia model mice. To be noted: for UA: serum, oxonic acid potassium salt 300 mg/kg i.p., mean ± SD. On the procedure: Oxoxazine potassium salt can directly increase blood uric acid levels in animals. In this experiment, intraperitoneal injection of oxonic acid potassium salt was used to observe the uric acid-lowering effect of UTLOH series drugs.
as §1

Setting [3] is: 10 mg/kg once a day, 2 h after modeling, mean ± SD.
The mark [4] stands for this setting: 10 mg/kg once a day, 4 h after modeling, mean ± SD.
Setting [5] is: 10 mg/kg once a day, 8 h after modeling, mean ± SD.
Setting [6] is: 10 mg/kg once a day, 24 h after modeling, mean ± SD.
The mark [7] stands for this setting: 10 mg/kg once a day, 48 h after modeling, mean ± SD.
[8] abbreviates: 20 mg/kg once a day, 2 h after modeling, mean ± SD.
Setting [9] is: 20 mg/kg once a day, 4 h after modeling, mean ± SD.
Where [10] appears, read: 20 mg/kg once a day, 8 h after modeling, mean ± SD.
Setting [11] is: 20 mg/kg once a day, 24 h after modeling, mean ± SD.
Where [12] appears, read: 20 mg/kg once a day, 48 h after modeling, mean ± SD.
Where [13] appears, read: 40 mg/kg once a day, 2 h after modeling, mean ± SD.
The mark [14] stands for this setting: 40 mg/kg once a day, 4 h after modeling, mean ± SD.
The mark [15] stands for this setting: 40 mg/kg once a day, 8 h after modeling, mean ± SD.
[16] abbreviates: 40 mg/kg once a day, 24 h after modeling, mean ± SD.
[17] abbreviates: 40 mg/kg once a day, 48 h after modeling, mean ± SD.
Setting [18] is: 6.25 mg/kg gavage once a day for 7 days.
[19] abbreviates: 12.5 mg/kg gavage once a day for 7 days.

T1 sequence (Q00519 whole entry): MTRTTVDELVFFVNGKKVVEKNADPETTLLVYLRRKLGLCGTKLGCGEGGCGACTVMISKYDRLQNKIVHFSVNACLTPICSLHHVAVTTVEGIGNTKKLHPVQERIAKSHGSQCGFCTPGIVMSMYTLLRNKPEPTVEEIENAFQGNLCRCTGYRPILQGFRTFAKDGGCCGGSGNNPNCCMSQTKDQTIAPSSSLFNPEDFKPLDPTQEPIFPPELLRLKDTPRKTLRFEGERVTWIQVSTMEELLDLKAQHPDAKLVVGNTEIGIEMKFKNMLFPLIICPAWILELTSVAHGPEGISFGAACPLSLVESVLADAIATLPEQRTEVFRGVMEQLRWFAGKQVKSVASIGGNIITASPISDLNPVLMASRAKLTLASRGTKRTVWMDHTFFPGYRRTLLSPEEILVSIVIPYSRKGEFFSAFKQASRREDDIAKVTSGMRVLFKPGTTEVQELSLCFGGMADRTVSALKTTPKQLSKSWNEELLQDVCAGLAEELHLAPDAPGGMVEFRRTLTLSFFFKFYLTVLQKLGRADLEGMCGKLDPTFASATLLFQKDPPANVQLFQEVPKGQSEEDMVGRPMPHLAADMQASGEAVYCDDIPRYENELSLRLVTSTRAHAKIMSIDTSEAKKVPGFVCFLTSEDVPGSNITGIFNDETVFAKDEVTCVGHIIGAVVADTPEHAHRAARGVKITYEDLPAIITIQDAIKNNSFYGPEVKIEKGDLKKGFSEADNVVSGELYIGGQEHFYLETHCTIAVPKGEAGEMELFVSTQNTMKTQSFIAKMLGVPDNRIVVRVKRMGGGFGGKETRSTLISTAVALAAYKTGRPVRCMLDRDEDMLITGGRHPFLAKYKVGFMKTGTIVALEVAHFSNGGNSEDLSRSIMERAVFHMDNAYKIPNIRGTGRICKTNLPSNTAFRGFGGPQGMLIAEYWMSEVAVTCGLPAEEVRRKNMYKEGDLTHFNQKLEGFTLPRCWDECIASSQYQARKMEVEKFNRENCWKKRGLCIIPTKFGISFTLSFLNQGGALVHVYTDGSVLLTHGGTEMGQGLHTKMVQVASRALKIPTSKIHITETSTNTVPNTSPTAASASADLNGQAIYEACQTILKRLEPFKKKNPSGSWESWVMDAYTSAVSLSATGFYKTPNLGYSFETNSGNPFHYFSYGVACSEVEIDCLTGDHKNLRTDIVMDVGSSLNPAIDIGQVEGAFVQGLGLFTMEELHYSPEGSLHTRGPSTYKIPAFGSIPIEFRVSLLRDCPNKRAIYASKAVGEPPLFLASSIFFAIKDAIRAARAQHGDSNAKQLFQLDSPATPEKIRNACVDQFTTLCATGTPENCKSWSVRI

Turning to `Cc1cc(C(=O)Nc2ccccc2O)no1` [UTLOH-4a], the “Foot swelling” value was 0.33 ± 0.20 mL in assay [1] (setting [3]); 0.31 ± 0.10 mL in assay [1] (setting [4]); 0.29 ± 0.09 mL in assay [1] (setting [5]); 0.20 ± 0.11 mL in assay [1] (setting [6]); 0.03 ± 0.11 mL in assay [1] (setting [7]); 0.28 ± 0.13 mL in assay [1] (setting [8]). In addition, the “Foot swelling” value in assay [1] (setting [9]) turned out to be 0.3 ± 0.13 mL; in assay [1] (setting [10]), 0.32 ± 0.09 mL; in assay [1] (setting [11]) it was 0.21 ± 0.14 mL; in assay [1] (setting [13]), 0.30 ± 0.13 mL; in assay [1] (setting [14]) it was 0.36 ± 0.13 mL; in assay [1] (setting [15]) it was 0.36 ± 0.09 mL. The “Foot swelling” value in assay [1] (setting [16]) was determined as 0.19 ± 0.11 mL; in assay [1] (setting [17]) it was 0.11 ± 0.09 mL. In addition, the “Foot swelling (ml)” value in assay [1] (setting [12]) is recorded as 0.07 ± 13*^ ml. The “foot volume compared with the model group (in words)” value in assay [1] (low-) is on record as “significantly reduce”.
As to `Cc1cc(C(=O)Nc2ccc(O)cc2O)no1` [UTLOH-4e], the “XOD(U/gprot)” value was 21.55 ± 2.00 U/gprot on xanthine oxidase (XOD) (setting [18]) and 22.54 ± 3.98 U/gprot at xanthine oxidase (XOD) (setting [19]). In addition, at xanthine oxidase (XOD) (versus model group), the “liver XOD activity of model mice (in words)” value is recorded as “significantly reduce”. The “UA” value is 50.07 ± 9.86 µmol/L in assay [2] (setting [18]) and 47.15 ± 13.48 µmol/L in assay [2] (setting [19]). For the same compound, the “level of uric acid in the serum of model mice (in words)” value in assay [2] (versus model group) is recorded as “significantly reduce”. In addition, the “Foot swelling” value came to 0.28 ± 0.09 mL in assay [1] (setting [3]); 0.34 ± 0.07 mL in assay [1] (setting [4]); 0.33 ± 0.11 mL in assay [1] (setting [5]); 0.22 ± 0.12 mL in assay [1] (setting [6]); 0.05 ± 0.07 mL in assay [1] (setting [7]); 0.18 ± 0.07 mL in assay [1] (setting [8]). Also, the “Foot swelling” value in assay [1] (setting [9]) was determined as 0.24 ± 0.06 mL; in assay [1] (setting [10]) it was 0.19 ± 0.07 mL; in assay [1] (setting [11]), 0.19 ± 0.12 mL; in assay [1] (setting [12]), 0.09 ± 0.08 mL; in assay [1] (setting [13]), 0.20 ± 0.08 mL; in assay [1] (setting [14]) it was 0.25 ± 0.05 mL. Moreover, the “Foot swelling” value in assay [1] (setting [15]) is 0.19 ± 0.10 mL; in assay [1] (setting [16]), 0.22 ± 0.07 mL; in assay [1] (setting [17]), 0.09 ± 0.12 mL. In assay [1] (2 h, 4 h, 8 h), the “foot volume compared with the model group (in words)” value is on record as “significantly reduce”.
